Laboratory results: patent US20230382940A1, “ANTIVIRAL COMPOUNDS AND METHODS OF MAKING AND USING THE SAME” (Gilead Sciences, Inc., priority 2022, published 2023)
Where two headings read alike, the source gives them in different places.

Legend:
[1] = system: Human Rhinovirus 14 (HRV14); experiment: H1-HeLa HRV-CTG 384-well assay, HRV14, Example X; type: cell-based; details: Rhinovirus B, 96 h, read-out: EC50 H1-HeLa_HRV 14_HRV-CTG 384-well Assay (per Ex. X)
Excerpt: (§1) Example X: H1-HeLa HRV-CTG 384-Well Assay
(§2) H1-Hela cell line (ATCC, Manassas, VA, Cat #CRL-1958) was maintained in Dulbecco's […] (DMEM) (Corning, New York, NY, Cat #15-018CM) supplemented with 10% fetal bovine serum (FBS) (Hyclone, Logan, UT, Cat #SH30071-03), and 1× Penicillin-Streptomycin-L-Glutamine (Corning, New York, NY, Cat #30-009-CI). Cells were passaged 2 times per week to maintain sub-confluent densities and were used for experiments at passage 5-30. The Human Rhinovirus 1B (HRV1B) (ATCC, Manassas, VA, Cat #VR-1645), Human Rhinovirus 14 (HRV14) (ATCC, Manassas, VA, Cat #VR-284), and Human Rhinovirus 16 (HRV16) (ATCC, Manassas, VA, Cat #BR-283) was obtained through ATCC. Viral infection was monitored by determining viability of H1-HeLa cells as described below.
(§3) Test molecules are prepared in 100% DMSO in 384-well polypropylene plates (Greiner, Monroe, NC, Cat #784201) with 8 compounds per plate in grouped replicates of 4 at 10 serially diluted concentrations (1:3). The serially diluted compounds were transferred to low dead volume Echo plates (Labcyte, Sunnyvale, CA, Cat #LP-0200).
(§4) The test compounds were spotted to 384-well assay plates (Greiner, Monroe, NC, Cat #781091) at 200 nL per well using an Echo acoustic dispenser (Labcyte, Sunnyvale, CA). H1-HeLa cells were harvested and suspended in DMEM (supplemented with 2% FBS and 1× Penicillin-Streptomycin-L-Glutamine) and seeded to the pre-spotted assay plates at 5,000 cells per well in 30 μL. HRV1B, HRV14, and HRV16 was diluted in DMEM (supplemented with 2% FBS and 1× Penicillin-Streptomycin-L-Glutamine) at 97.1 million Infectious Units (IU) per mL, 151 million IU per mL and 221 million IU per mL respectively. 10 μL of virus per well was added to the assay plates containing cells and compounds, for an MOI of 0.5, 1.0, and 0.25 respectively. The assay plates were incubated for 4 days at 37° C. and 5% CO2. At the end of incubation, Celltiter-Glo (Promega, Madison, WI, Cat #G7573) was prepared. The assay plates and Celltiter-Glo reagent were equilibrated to room temperature for at least 15 minutes. 40 μL per well of Celltiter-Glo reagent was added and the plates were incubated at room temperature for 15 minutes before reading the luminescence signal on an EnVision multimode plate reader (Perkin Elmer, Waltham, MA). Rupintrivir was used as positive control and DMSO was used as negative control. Values were normalized to the positive and negative controls (as 0% and 100% replication, respectively) and data was fitted using non-linear regression analysis by Gilead's dose response tool. The EC50 value for each compound was defined as the concentration reducing viral replication by 50%.

[2] = system: Human Rhinovirus 1B (HRV1B); experiment: H1-HeLa HRV-CTG 384-well assay, HRV1B, Example X; type: cell-based; details: Rhinovirus A, 96 h, read-out: EC50 H1-HeLa_HRV 1B_HRV-CTG 384-well Assay (per Ex. X)
Excerpt: as §1, §2, §3, §4

[3] = GI S9 stability, rat, Example Y; type: in vitro ADME; details: pooled intestinal S9 fractions; rat intestinal S9, 1.0 mg/mL protein, 2 μM compound, pH 7.4; read-out: GIS9 Rat T½ (per Ex. Y)
Protocol: Example Y: GI S9 Stability Data
Stock solutions of test compounds in dimethyl sulfoxide (DMSO) having a final concentration of 10 mM were prepared and used in all experiments. Sekisui XenoTech (Kansas City, KS) provided pooled intestinal S9 fractions. All other chemicals were purchased from Sigma-Aldrich (St. Louis, MO) or VWR (West Chester, PA). Internal Standard/Quench (IS/Q) used to stop reactions was 100 nM labetalol in (by volume) methanol (10%) and acetonitrile (90%).
Stability in Intestinal S9 Fractions: Duplicate aliquots of test compound or positive control substrate were added to S9 stock diluted with phosphate buffered saline (137 mM NaCl, 2.7 mM KCl, 10 mM phosphate buffer), pH 7.4, to obtain a protein concentration of 1.0 mg/mL. The metabolic reactions were initiated by the addition of the substrates to the S9 reaction mixture to a final concentration of 2 μM. At 0, 10, 20, 30, 60 and 120 min, 25 μL aliquots of the reaction mixture were transferred to plates containing 225 μl of IS/Q solution. After quenching, the plates were centrifuged at 3000×g for 30 minutes. 150 μL aliquots of each supernatant were dried down then reconstituted with 300 μL water. Aliquots (10 μL) of the prepared samples were analyzed on a Thermo Q-Exactive mass spectrometer as described below.
Liquid Chromatography—Mass Spectrometry: Quantification of test compounds and control substrate was performed by analyte/internal standard peak area ratio (PAR) values measured on a Thermo Q-Exactive mass spectrometer coupled to a Dionex UltiMate 3000 HPLC with a Leap Technologies HTC PAL autosampler. The column used for analysis was a Waters Acquity BEH C18 (1.7 μm particle size, 2.1×50 mm). Mobile phase A consisted of 0.1% (v/v) formic acid in water. Mobile phase B consisted of 0.1% (v/v) formic acid in acetonitrile. Elution of analytes was achieved by a series of linear gradients varying the proportions of A and B. The mass spectrometer was calibrated on a weekly basis and mass tolerance of 5 ppm was used.
Metabolic stabilities in S9 fractions were determined by measuring the rates of disappearance of test compound and positive control substrate.
Data (% of substrate remaining) were plotted on a semi-log scale and fitted using an exponential decline model:
Ct=C0×e^−ln2/T1/2×t • Where Ct—% of substrate remaining at time=t; C0—% of substrate remaining at time=0; t—time; T1/2—half-life. • The Half-life (T1/2) is determined by the following equation: […]
Assuming a first-order reaction, the slope (k) is extrapolated from the aforementioned plotted data.

[4] = system: Human Rhinovirus 16 (HRV16); experiment: H1-HeLa HRV-CTG 384-well assay, HRV16, Example X; type: cell-based; details: Rhinovirus A, 96 h, read-out: EC50 H1-HeLa_HRV 16_HRV-CTG 384-well Assay (per Ex. X)
Excerpt: as §1, §2, §3, §4

[5] = H1-HeLa cells, HRV14 MOI 1.0, 4 days, Celltiter-Glo
[6] = H1-HeLa cells, HRV1B MOI 0.5, 4 days, Celltiter-Glo
[7] = H1-HeLa cells, HRV16 MOI 0.25, 4 days, Celltiter-Glo

Row | SMILES | EC50 [1, 5] [µM] | EC50 [2, 6] [µM] | half-life at 2 μM [3] [min] | EC50 [4, 7] [µM] | EC50 ([1]; HRV14, H1-HeLa) [µM] | EC50 ([2]; HRV1B, H1-HeLa) [µM] | EC50 ([4]; HRV16, H1-HeLa) [µM]
1 | CC(C)OC(=O)OC[C@@]1(C#N)O[C@@H](c2ccc3c(N)ncnn23)[C@H](O)[C@@H]1O [Compound 11, ((2R,3S,4R,5S)-5-(4-aminopyrrolo[2,1-f][1,2,4]triazin-7-yl)-2-cyano-3,4-dihydroxytetrahydrofuran-2-yl)methyl isopropyl carbonate] | 31.1 | 12.2 | 14 | 37.4 |  |  | 
2 | N#C[C@]1(COC(=O)OC2CCOCC2)O[C@@H](c2ccc3c(N)ncnn23)[C@H](O)[C@@H]1O [Compound 12, ((2R,3S,4R,5S)-5-(4-aminopyrrolo[2,1-f][1,2,4]triazin-7-yl)-2-cyano-3,4-dihydroxytetrahydrofuran-2-yl)methyl (tetrahydro-2H-pyran-4-yl) carbonate] | 27.2 | 10 | 58 | 30.3 |  |  | 
3 | CC(C)(C)OC(=O)OC[C@@]1(C#N)O[C@@H](c2ccc3c(N)ncnn23)[C@H](O)[C@@H]1O [Compound 13, ((2R,3S,4R,5S)-5-(4-aminopyrrolo[2,1-f][1,2,4]triazin-7-yl)-2-cyano-3,4-dihydroxytetrahydrofuran-2-yl)methyl tert-butyl carbonate] |  |  | 74 |  | 4.67 | 3.19 | 7.67
4 | CCC(CC)OC(=O)OC[C@@]1(C#N)O[C@@H](c2ccc3c(N)ncnn23)[C@H](O)[C@@H]1O [Compound 14, ((2R,3S,4R,5S)-5-(4-aminopyrrolo[2,1-f][1,2,4]triazin-7-yl)-2-cyano-3,4-dihydroxytetrahydrofuran-2-yl)methyl pentan-3-yl carbonate] | 44.5 | 22.9 | 16 | 50 |  |  | 
5 | CC(C)COC(=O)OC[C@@]1(C#N)O[C@@H](c2ccc3c(N)ncnn23)[C@@H]2OC(=O)O[C@@H]21 [Compound 15, ((3aS,4R,6S,6aS)-6-(4-aminopyrrolo[2,1-f][1,2,4]triazin-7-yl)-4-cyano-2-oxotetrahydrofuro[3,4-d][1,3]dioxol-4-yl)methyl isobutyl carbonate] | 7.55 | 7.05 | 2 | 9.15 |  |  | 
6 | CC(C)COC(=O)Nc1ncnn2c([C@@H]3O[C@](C#N)(CO)[C@@H](O)[C@H]3O)ccc12 [Compound 16, Isobutyl (7-((2S,3R,4S,5R)-5-cyano-3,4-dihydroxy-5-(hydroxymethyl)tetrahydrofuran-2-yl)pyrrolo[2,1-f][1,2,4]triazin-4-yl)carbamate] | 50 | 50 | 789 | 50 |  |  | 
7 | N#C[C@]1(COC(=O)OC2CCC2)O[C@@H](c2ccc3c(N)ncnn23)[C@H](O)[C@@H]1O [Compound 17, ((2R,3S,4R,5S)-5-(4-aminopyrrolo[2,1-f][1,2,4]triazin-7-yl)-2-cyano-3,4-dihydroxytetrahydrofuran-2-yl)methyl cyclobutyl carbonate] | 18.4 | 6.08 | 7 | 15.1 |  |  | 
8 | CCCCCCOC(=O)OC[C@@]1(C#N)O[C@@H](c2ccc3c(N)ncnn23)[C@H](O)[C@@H]1O [Compound 19, ((2R,3S,4R,5S)-5-(4-aminopyrrolo[2,1-f][1,2,4]triazin-7-yl)-2-cyano-3,4-dihydroxytetrahydrofuran-2-yl)methyl hexyl carbonate] | 7 | 3.57 | 2 | 8.39 |  |  | 
9 | CCCCCOC(=O)OC[C@@]1(C#N)O[C@@H](c2ccc3c(N)ncnn23)[C@H](O)[C@@H]1O [Compound 20, ((2R,3S,4R,5S)-5-(4-aminopyrrolo[2,1-f][1,2,4]triazin-7-yl)-2-cyano-3,4-dihydroxytetrahydrofuran-2-yl)methyl pentyl carbonate] | 12.3 | 4.69 | 3 | 9.58 |  |  | 
10 | N#C[C@]1(COC(=O)OC2CCCCC2)O[C@@H](c2ccc3c(N)ncnn23)[C@H](O)[C@@H]1O [Compound 21, ((2R,3S,4R,5S)-5-(4-aminopyrrolo[2,1-f][1,2,4]triazin-7-yl)-2-cyano-3,4-dihydroxytetrahydrofuran-2-yl)methyl cyclohexyl carbonate] | 23.5 | 7.87 | 8 | 26.7 |  |  | 
11 | CCOC(=O)OC[C@@]1(C#N)O[C@@H](c2ccc3c(N)ncnn23)[C@H](O)[C@@H]1O [Compound 22, ((2R,3S,4R,5S)-5-(4-aminopyrrolo[2,1-f][1,2,4]triazin-7-yl)-2-cyano-3,4-dihydroxytetrahydrofuran-2-yl)methyl ethyl carbonate] | 19.9 | 9.8 | 14 | 26.3 |  |  | 
12 | N#C[C@]1(COC(=O)OC2CC2)O[C@@H](c2ccc3c(N)ncnn23)[C@H](O)[C@@H]1O [Compound 23, ((2R,3S,4R,5S)-5-(4-aminopyrrolo[2,1-f][1,2,4]triazin-7-yl)-2-cyano-3,4-dihydroxytetrahydrofuran-2-yl)methyl cyclopropyl carbonate] | 11.4 | 5.32 | 9 | 9.64 |  |  | 
